Patent publication US20030165586A1, “Anti-angiogenic composition comprising ticlopidine and gingko biloba extract” (priority 2003, published 2003)

Key:
[1] = tested on: Human umbilical vein endothelial cells (HUVECs); test: Tube formation assay of HUVEC in Matrigel; type: cell-based; details: 50 μM ticlopidine alone; total tube area per well relative to control (100)
Procedure: The tube formation assay was performed as follows: 48-well plates were coated with 0.2 ml of Matrigel (BD Bioscience, Bedford, Mass., USA) and incubated at 37° C. for 1 hr. 4˜6×10^4 HUVECs resuspended in 0.4 ml of M199 medium were added to each well. Ticlopidine (Sigma Chemical Co., USA) and Ginkgo biloba extract (Hwa Il Pharmaceutical Co., LTD, Korea), a standardized extract that contained 24% flavonoid glycosides and 6% terpenoids, were added to the Matrigel. Final concentration of ticlopidine and Ginkgo biloba extract were 25 μM and 5 μg/ml, respectively. As a control, the procedure was repeated without added ticlopidine and Ginkgo biloba extract. Comparative runs were also conducted by the same procedure using ticlopidine alone (comparative run 1) or only with Ginkgo biloba extract (comparative run 2). The extent of tube formation was determined by measuring the total tube area per well relative to that of the control using image analysis program Image-Pro Pluso (Media Cybernetics, USA).

[2] = tested on: formation of blood vessels in Matrigel; test: Matrigel plug assay (hemoglobin in bFGF/heparin Matrigel implanted in mice); type: in vivo, C57BL/6 female mice; details: 0.65 mg/mouse orally twice per day for four days; control = 100
Procedure: 0.4 ml portion of Matrigel each mixed with 50 ng/ml of basic fibroblast growth factor (bFGF) and 50 units of heparin were implanted by subcutaneous injection in 5-week-old C57BL/6 female mice, and a mixture of 0.65 mg ticlopidine and 0.4 mg Ginkgo biloba extract was orally administrated to each mouse twice per day for four days. Then each mouse was sacrificed and the Matrigel was excised. For comparison, the procedure was repeated using ticlopidine or Ginkgo biloba extract alone. The formation of blood vessels in Matrigel was tested by measuring the amount of hemoglobin (Hb) in the Matrigel using the Drabkin reagent kit (Sigma Chemical Co., St. Louise, Mich., USA) which contained standards of known amounts of Hb.

SMILES: Clc1ccccc1CN1CCc2sccc2C1 [Ticlopidine, 5-[(2-chlorophenyl)methyl]-4,5,6,7-tetrahydrothieno[3,2-C]pyridine]
- Total Tube Area % [1]: 91%
- Hemoglobin (%) [2]: 95%
